Experimental data taken from patent EP1678287B1, “DISPENSER CONTAINING LIQUID BLEACHING COMPOSITION” (Reckitt Benckiser (UK) Limited, priority 2003, dated 2005).

Assay: Storage stability of MMAM in an aqueous hydrogen peroxide composition with the surfactant under test
Type: physicochemical
Conditions: 2 weight % Dowanol PnB added to the compositions of Example 1
Procedure: In this example, a number of surfactants were tested for their ability to stabilise methyl morpholinium acetonitrile methylsulphate (MMAM) in the presence of hydrogen peroxide.
The surfactant under test was added to an aqueous composition containing 1 weight % H2O2 and 1.1 weight % MMAM (1.7 weight % Sokalan BM) The active amount of surfactant in the composition was 1 weight %. In a control sample, no surfactant was added.

CCCCOCC(C)O (stereo not shown) [Dowanol PnB, n-butyl monoether of propylene glycol]
effect of solvent on stability: did not have a significant effect on stability
